Test results: ChEMBL document CHEMBL1201862, “PubChem BioAssay data set” (2004)
Calls of active or inactive are those of the source.

Columns and labels:
Bcl-2-like protein 10 = target: T1, Bcl-2-like protein 10 (Homo sapiens, UniProt Q9HD36); assay: Biochemical TR3 FP assay of Bcl-B inhibitor potency, EC50 (AID 1243); assay type: functional
T1 sequence (Q9HD36 whole entry): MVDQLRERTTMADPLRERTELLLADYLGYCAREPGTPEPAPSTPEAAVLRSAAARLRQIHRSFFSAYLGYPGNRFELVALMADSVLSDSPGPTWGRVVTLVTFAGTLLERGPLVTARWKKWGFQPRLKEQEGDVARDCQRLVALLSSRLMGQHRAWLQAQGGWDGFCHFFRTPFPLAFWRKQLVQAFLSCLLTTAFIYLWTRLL

[1] = HEp-2 cell cytotoxicity, dose response, cytotoxicity control for RSV inhibitor project, HTS (AID 2410); assay type: functional; conditions: human respiratory syncytial virus
[2] = Luminescence-based counterscreen assay for KLF5 inhibitors: dose response cell-based high throughput screening assay to identify cytotoxic compounds using the IEC-6 intestinal epithelial cell line. [Related pubchem assays: 1700 (Primary screen.), 1834 (Confirmation screen.), 1858 (Summary AID.), 1905 (Counterscreen.)]; assay type: functional
[3] = target: Glucose-6-phosphate 1-dehydrogenase (Homo sapiens, UniProt P11413); assay: human G6PD enzyme inhibitors, dose response, selectivity assay for P. falciparum G6PD inhibitor project, biochemical, fluorescence (AID 504792); assay type: functional
[4] = target: T2, Microphthalmia-associated transcription factor (Homo sapiens, UniProt O75030); assay: TRPM1 promoter luciferase signal decrease, dose response, MITF inhibitor project, cell-based, SK-MEL-5, cherry-picked, set 3 (AID 493073); assay type: functional
T2 sequence (O75030 whole entry): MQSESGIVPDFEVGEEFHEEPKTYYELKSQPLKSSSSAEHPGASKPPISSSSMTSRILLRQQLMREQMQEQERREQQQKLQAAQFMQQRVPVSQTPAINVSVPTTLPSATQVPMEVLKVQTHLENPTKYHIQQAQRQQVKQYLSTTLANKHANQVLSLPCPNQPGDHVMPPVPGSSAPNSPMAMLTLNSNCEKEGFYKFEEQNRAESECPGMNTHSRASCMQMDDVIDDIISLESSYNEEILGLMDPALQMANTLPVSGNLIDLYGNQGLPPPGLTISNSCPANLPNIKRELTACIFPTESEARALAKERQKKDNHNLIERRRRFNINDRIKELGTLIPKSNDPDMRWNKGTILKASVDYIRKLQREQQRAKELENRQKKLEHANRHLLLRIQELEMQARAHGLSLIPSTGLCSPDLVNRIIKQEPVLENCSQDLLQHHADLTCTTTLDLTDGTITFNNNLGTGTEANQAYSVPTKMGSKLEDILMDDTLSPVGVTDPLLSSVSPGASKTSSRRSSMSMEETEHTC

Vero = assay: cells; assay type: functional; conditions: Chlorocebus sabaeus
[5] = target: T3, Long-chain-fatty-acid--AMP ligase FadD28 (Mycobacterium tuberculosis, UniProt P9WQ59); assay: Fluorescence polarization aasay to screen for inhibitors that compete for the binding of FadD28 to a bisubstrate Measured in Biochemical System Using Plate Reader - 2147-01_Inhibitor_Dose_CherryPick_Activity.; assay type: functional, Mycobacterium tuberculosis H37Rv
T3 sequence (P9WQ59 whole entry): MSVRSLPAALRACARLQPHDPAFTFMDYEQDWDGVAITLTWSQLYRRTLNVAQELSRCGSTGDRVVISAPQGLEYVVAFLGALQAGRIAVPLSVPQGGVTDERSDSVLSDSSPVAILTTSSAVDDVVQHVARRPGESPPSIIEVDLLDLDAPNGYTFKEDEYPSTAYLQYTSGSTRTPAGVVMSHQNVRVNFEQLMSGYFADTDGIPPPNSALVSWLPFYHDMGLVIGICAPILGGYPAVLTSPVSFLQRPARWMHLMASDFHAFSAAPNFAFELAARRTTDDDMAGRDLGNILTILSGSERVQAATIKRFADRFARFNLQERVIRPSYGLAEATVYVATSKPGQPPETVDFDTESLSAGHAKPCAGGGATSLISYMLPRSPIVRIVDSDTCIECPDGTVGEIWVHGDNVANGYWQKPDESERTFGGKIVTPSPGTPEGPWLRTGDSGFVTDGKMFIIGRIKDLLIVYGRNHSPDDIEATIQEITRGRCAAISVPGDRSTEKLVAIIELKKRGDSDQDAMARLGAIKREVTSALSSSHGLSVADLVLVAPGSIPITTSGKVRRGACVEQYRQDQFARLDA

[6] = inhibitors of HIV Env-driven cell fusion, dose response, cherry-pick (AID 652057); assay type: functional, cell-based
[7] = CEM21 lymphoblast cell cytotoxicity, dose response, cytotoxicity control for viral fusion inhibitor project, CellTiter-Glo luminescence, cherry-picked (AID 652042); assay type: functional, cell-based;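 also: potency for signal decrease meaning cytotoxicity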
[8] = ZM109 Env clade C HIV-1 fusion inhibitors, dose response, HeLa effector, CEM target cells, luciferase, cherry-pick (AID 652058); assay type: functional, cell-based
[9] = off-target signal loss in HeLa-CEM21 co-culture – HeLa F-luc CTL cells, cherry-picked, counter-screen for HIV-1 Env fusion inhibitor project, dose response (AID 652040); assay type: functional, cell-based;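 also: potency for signal decrease marking cytotoxic or nonspecific inhibition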
[10] = inhibitors of clade B AD8 Env fusion, dose response, cell-based, cherry-pick (AID 652062); assay type: functional;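 also: luciferase signal from cell-cell fusion driven by HIV-1 clade B AD8 Env; potency is for inhibitors of fusion seen as a drop in luminescence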
[11] = NIH-3T3 fibroblast cytotoxicity, dose response, cytotoxicity control, cell-based, fluorescence, Alamar Blue, secondary assay (AID 2327); assay type: functional;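 also: NIH-3T3 mouse fibroblasts cultured with fluconazole at 8 µg/mL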
HeLa = assay: Cytotoxicity counterscreen assay for transcriptional activators of heat shock protein 70 (Hsp70). [Related pubchem assays: 1203, 1252 ]; assay type: functional; conditions: Homo sapiens
Beta-galactosidase [12] = target: T4, Beta-galactosidase (Escherichia coli, UniProt Q8VNN2); assay: PubChem AID 485352; assay type: functional
[13] = C. albicans growth with fluconazole, confirmation, fluorescence, retest (AID 2467); assay type: functional, cell-based
[14] = target: T5, Type-1 angiotensin II receptor (Homo sapiens, UniProt P30556); assay: AT1 receptor antagonists, dose response, selectivity assay for APJ receptor antagonist project, cell-based, uHTS hits (AID 463214); assay type: functional;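 also: antagonist potency against angiotensin II stimulated AT1 response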
T5 sequence (P30556 whole entry): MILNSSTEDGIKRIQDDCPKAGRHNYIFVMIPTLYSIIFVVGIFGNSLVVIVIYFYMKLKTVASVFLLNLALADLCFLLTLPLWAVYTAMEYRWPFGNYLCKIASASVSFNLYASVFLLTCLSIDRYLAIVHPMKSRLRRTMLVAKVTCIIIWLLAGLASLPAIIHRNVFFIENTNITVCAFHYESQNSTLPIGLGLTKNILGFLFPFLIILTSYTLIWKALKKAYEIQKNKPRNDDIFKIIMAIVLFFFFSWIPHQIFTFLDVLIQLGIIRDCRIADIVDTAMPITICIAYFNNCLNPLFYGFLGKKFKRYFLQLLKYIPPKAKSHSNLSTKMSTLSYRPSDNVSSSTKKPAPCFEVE

[15] = target: T6, Kappa-type opioid receptor (Homo sapiens, UniProt P41145); assay type: functional
Beta-galactosidase [16] = target: T4, Beta-galactosidase; assay type: functional
[17] = target: Sphingosine 1-phosphate receptor 4 (Homo sapiens, UniProt O95977); assay: Fluorescence dose response cell-based high throughput screening assay for antagonists of the Sphingosine 1-Phosphate Receptor 4 (S1P4). [Related pubchem assays: 1524 (Confirmation in triplicates.), 1510 (Primary screen.)]; assay type: functional
[18] = target: T6, Kappa-type opioid receptor; assay type: functional; remark: listed apart in the source
[19] = target: Sphingosine 1-phosphate receptor 1 (Homo sapiens, UniProt P21453); assay type: functional;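 also: Tango beta-arrestin reporter U2OS cells stimulated with S1P near its EC80; inhibitor potency meaning antagonism of receptor activation by the natural agonist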
[20] = target: T7, Replicative DNA helicase DnaB (Mycobacterium tuberculosis, UniProt P9WMR3); assay: DnaB intein splicing inhibitors, dose response, biochemical, cell-free fluorescence (AID 449749); assay type: functional
T7 sequence (P9WMR3 whole entry): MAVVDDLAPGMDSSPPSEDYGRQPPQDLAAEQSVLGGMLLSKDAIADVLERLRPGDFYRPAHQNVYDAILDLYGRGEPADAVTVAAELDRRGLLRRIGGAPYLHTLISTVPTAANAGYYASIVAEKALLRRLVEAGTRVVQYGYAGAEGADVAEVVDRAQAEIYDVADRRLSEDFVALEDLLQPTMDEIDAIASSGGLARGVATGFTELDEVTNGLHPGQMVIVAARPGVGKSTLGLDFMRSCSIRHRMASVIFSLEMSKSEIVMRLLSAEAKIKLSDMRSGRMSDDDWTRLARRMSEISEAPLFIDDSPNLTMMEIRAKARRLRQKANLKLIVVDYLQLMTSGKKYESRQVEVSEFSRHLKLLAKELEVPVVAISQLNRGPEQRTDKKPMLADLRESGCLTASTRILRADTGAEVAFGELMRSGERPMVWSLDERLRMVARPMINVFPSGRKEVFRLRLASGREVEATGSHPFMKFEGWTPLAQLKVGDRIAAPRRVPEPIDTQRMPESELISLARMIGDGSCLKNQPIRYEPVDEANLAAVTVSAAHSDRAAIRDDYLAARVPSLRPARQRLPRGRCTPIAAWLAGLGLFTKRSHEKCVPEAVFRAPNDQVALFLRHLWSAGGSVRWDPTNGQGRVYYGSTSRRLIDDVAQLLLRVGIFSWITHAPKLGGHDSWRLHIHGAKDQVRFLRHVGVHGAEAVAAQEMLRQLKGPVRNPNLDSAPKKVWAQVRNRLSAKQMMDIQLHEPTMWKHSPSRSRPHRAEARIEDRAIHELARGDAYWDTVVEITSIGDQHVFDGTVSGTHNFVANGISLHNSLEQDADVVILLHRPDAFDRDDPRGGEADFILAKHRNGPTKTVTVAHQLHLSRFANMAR

[21] = target: Heat shock protein HSP 90-alpha (Homo sapiens, UniProt P07900); assay type: functional, organism-based
BJ = assay: cytotoxicity toward Ras-transformed BJeLR fibroblasts, dose response, cell-based, alamar blue fluorescence, cherrypicked samples (AID 2631); assay type: functional; conditions: Homo sapiens;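 also: confirmatory dose-response assay in RAS-dependent BJ fibroblasts engineered with TERT, LT and ST, with cytotoxicity read by fluorescence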
Protein RecA = target: T8, Protein RecA (Mycobacterium tuberculosis, UniProt P9WHJ3); assay: Fluorescence Cell-Free Homogeneous Dose Retest to Identify Inhibitors of RecA-Intein Splicing Activity. [Related pubchem assays (depositor defined):AID2097, AID2223, AID489010, AID492950]; assay type: functional
T8 sequence (P9WHJ3 whole entry): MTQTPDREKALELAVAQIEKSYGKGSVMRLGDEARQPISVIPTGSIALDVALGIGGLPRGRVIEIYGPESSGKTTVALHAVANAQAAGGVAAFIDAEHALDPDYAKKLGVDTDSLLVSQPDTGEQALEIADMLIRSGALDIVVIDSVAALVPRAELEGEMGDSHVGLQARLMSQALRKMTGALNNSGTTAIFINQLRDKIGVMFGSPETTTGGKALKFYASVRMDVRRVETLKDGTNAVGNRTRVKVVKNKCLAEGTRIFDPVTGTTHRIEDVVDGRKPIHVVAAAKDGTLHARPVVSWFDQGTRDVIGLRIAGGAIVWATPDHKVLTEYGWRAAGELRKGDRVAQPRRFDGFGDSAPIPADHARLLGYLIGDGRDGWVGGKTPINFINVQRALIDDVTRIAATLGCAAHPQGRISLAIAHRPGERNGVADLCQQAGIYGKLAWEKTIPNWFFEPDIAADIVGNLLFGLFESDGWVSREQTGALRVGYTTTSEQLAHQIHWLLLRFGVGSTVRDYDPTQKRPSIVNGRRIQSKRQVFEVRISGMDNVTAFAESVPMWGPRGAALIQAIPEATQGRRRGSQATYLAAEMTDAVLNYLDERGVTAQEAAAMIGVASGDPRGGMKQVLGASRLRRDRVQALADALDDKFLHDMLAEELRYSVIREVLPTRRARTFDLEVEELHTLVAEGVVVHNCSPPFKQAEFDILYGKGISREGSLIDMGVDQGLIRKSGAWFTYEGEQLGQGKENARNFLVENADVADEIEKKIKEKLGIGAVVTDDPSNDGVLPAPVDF

[22] = inhibitors of PGC1a acetylation in cells, dose response, cell-based, cherry-picked samples (AID 720514); assay type: functional;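 also: potency may reflect raised or lowered acetylation signal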
[23] = A549 cell cytotoxicity, dose response, cytotoxicity control, plate reader, cherry-pick, antagonist series (AID 743412); assay type: functional, cell-based
[24] = HepG2 cell cytotoxicity, dose response, cytotoxicity control, plate reader, cherry-pick, antagonist series (AID 743416); assay type: functional, cell-based
[25] = LGR2 antagonists, dose response, cell-based, HEK293, CRE-luciferase reporter, cherry pick, set 2 (AID 743343); assay type: functional;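 also: transfected cells were stimulated with diluted bursicon conditioned medium after compound addition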
[26] = MC4R antagonists, dose response, counter-screen for LGR2 antagonist project, cell-based, plate reader, cherry pick (AID 743444); assay type: functional;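 also: transfected HEK 293 cells stimulated with alpha-MSH peptide; potency of inhibitors of the alpha-MSH evoked signal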
[27] = HEK293 cell cytotoxicity, dose response, cytotoxicity control, plate reader, cherry-picked samples (AID 743446); assay type: functional, cell-based

T6 sequence (P41145 whole entry): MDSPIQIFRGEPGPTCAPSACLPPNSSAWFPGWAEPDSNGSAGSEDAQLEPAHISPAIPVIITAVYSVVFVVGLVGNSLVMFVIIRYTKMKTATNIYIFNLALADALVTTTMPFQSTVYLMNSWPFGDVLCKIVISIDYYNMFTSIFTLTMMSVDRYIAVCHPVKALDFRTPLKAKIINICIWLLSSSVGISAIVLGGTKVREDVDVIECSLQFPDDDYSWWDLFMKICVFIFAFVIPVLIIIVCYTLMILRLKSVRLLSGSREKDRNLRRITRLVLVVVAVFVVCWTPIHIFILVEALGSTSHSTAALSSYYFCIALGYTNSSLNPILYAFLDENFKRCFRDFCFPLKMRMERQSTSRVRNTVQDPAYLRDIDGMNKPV
T4 sequence (Q8VNN2 whole entry): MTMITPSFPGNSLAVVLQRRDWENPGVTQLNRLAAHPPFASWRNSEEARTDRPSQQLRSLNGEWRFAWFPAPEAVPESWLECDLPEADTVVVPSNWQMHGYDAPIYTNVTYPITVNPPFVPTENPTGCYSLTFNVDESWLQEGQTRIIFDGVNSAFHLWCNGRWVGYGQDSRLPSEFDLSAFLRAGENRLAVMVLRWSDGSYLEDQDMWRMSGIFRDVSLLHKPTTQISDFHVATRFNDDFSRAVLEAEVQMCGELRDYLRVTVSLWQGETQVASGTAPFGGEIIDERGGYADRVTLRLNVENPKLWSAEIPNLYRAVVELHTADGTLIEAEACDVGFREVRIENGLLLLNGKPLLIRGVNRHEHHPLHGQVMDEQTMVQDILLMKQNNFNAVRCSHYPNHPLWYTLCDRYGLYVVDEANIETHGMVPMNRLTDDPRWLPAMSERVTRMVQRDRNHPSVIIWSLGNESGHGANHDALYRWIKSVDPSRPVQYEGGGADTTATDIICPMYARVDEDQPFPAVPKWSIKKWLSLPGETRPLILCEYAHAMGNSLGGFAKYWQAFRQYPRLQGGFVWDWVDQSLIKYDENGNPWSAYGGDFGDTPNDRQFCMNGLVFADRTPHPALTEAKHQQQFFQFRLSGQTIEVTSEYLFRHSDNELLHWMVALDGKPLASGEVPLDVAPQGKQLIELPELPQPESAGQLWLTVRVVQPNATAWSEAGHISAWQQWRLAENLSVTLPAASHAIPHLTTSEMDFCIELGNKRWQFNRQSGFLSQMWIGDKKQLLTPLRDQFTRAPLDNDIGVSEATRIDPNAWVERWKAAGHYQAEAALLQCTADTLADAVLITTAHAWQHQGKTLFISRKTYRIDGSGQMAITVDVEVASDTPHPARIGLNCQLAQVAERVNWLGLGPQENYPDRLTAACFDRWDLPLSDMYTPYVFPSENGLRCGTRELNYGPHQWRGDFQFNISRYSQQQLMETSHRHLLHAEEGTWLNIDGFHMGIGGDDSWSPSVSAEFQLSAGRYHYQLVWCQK
Glucose-6-phosphate 1-dehydrogenase, sequence (P11413 whole entry): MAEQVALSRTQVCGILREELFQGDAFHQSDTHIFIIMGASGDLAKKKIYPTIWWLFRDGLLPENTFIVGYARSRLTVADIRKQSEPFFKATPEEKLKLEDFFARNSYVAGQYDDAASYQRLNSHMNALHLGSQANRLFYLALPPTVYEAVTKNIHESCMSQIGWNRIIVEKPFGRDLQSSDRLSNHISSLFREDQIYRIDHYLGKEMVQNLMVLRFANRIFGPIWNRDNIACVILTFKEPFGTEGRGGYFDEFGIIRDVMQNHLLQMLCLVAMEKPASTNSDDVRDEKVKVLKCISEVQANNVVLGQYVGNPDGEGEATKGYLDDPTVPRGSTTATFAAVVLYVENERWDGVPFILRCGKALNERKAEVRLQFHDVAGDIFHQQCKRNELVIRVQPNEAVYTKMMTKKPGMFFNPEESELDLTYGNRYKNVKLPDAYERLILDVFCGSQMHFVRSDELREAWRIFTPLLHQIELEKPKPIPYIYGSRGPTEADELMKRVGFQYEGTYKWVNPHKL
Sphingosine 1-phosphate receptor 4, sequence (O95977 whole entry): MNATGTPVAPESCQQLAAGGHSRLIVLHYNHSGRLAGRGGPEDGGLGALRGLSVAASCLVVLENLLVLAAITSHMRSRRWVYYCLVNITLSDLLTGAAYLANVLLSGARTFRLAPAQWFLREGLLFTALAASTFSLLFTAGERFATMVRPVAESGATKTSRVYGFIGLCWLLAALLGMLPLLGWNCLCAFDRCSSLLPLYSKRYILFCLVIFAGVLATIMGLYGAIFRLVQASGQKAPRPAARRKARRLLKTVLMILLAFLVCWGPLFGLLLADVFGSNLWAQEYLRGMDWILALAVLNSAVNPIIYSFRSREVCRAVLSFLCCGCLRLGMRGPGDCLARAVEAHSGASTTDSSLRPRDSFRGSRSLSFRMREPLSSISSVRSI
Sphingosine 1-phosphate receptor 1, sequence (P21453 whole entry): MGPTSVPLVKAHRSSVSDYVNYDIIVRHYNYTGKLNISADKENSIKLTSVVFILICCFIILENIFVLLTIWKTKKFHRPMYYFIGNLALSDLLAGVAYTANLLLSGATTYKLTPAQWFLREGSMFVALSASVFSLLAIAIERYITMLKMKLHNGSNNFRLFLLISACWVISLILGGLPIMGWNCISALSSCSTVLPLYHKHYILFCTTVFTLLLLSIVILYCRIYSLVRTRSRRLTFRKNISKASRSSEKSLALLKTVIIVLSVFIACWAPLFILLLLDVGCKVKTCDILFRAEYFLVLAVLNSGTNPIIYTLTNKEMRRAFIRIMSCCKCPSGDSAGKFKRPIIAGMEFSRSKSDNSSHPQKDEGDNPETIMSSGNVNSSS

## Cc1ccc(C)n1-c1ccccc1C(=O)O
Bcl-2-like protein 10
  EC50: 0.62 µM (active)

## CC(C)(C)c1ccc(C(=O)Nc2sc3c(c2C(=O)O)CCC3)cc1
[1]
  CC50: 6.97 µM (active)
[2]
  IC50: > 39.8 µM (not active)
[3]
  IC50: > 80 µM (inactive)
[4]
  AC50: 2.09 µM (active)
Vero
  CC50: > 25 µM (active)
[5]
  AC50: > 100 µM (inactive)
[6]
  AC50: 2.21 µM (active)
[7]
  AC50: 66.1 µM (active)
[8]
  AC50: 1.36 µM (active)
[9]
  AC50: 4.43 µM (active)
[10]
  AC50: 0.786 µM (active)

## CC(C)(C)c1ccc(-n2nc(C#N)c(Cl)cc2=O)cc1
[11]
  EC50: 5.04 µM (inconclusive)
HeLa
  CC50: > 3.67 µM (not active)
Beta-galactosidase [12]
  EC50: > 40 µM (inactive)
[13]
  EC50: > 38 µM (not active)
[14]
  IC50: 38.5 µM (not active)
[15]
  IC50: 3.68 µM (active)
Beta-galactosidase [16]
  EC50: > 31.5 µM (inactive)
[17]
  IC50: 1.87 µM (active)
[18]
  IC50: 4.02 µM
[19]
  IC50: 9.04 µM (active)
[20]
  AC50: 0.746 µM (active)
[21]
  AC50: 3.8 µM (active)
BJ
  EC50: 1.13 µM (active)
Protein RecA
  EC50: 0.989 µM (active)
[22]
  AC50: 2.85 µM (active)
[23]
  AC50: 2.83 µM (active)
[24]
  AC50: 2.81 µM (active)
[25]
  AC50: 12 µM (active)
[26]
  AC50: 14.4 µM (active)
[27]
  AC50: 6.44 µM (active)
